Reference: patent publication US20090105278A1, “Selective inhibitors of human corticosteroid syntheses” (Universitat Des Saarlandes, priority 2004, published 2009)
Where a name gives a salt, the structure may show the parent alone.

Each molecule was assayed against T1, human CYP11B2 (Homo sapiens, UniProt P19099) (assay: Screening test in transgenic fission yeast (S. pombe PE1) expressing human CYP11B2). Details: S. pombe cells which express human CYP11B2; deoxycorticosterone substrate 100 nM; inhibitor 500 nM.
T1 sequence (P19099 25-503): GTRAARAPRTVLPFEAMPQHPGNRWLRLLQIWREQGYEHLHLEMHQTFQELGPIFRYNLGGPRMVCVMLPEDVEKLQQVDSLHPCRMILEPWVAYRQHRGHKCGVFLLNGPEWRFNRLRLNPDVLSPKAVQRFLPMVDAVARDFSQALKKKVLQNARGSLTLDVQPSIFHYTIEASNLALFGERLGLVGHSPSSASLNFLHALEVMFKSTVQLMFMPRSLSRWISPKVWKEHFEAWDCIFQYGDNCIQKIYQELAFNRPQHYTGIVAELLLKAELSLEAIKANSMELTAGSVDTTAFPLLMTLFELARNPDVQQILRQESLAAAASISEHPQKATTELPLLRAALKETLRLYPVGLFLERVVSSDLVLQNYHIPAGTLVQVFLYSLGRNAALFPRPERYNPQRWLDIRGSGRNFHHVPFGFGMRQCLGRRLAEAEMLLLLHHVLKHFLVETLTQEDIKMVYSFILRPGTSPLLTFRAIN
Format: cell-based
Design: expressed in transfected cells
Method in brief: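 Deoxycorticosterone conversion to corticosterone, 18-hydroxycorticosterone and aldosterone assessed after EtOAc extraction by HPTLC with 14C phosphorimaging. Conversion rate calculated from quantified steroid spots.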

| Compound | % Inhibition human hCYP11B2 |
| --- | --- |
| C(=C1\CCc2ccccc21)/c1cccnc1.Cl [Compound 1b, 3-[(Z)-2,3-Dihydro-1H-indane-1-ylidenemethyl]pyridine Hydrochloride] | 83% |

Same assay, conditions: S. pombe cells which express human CYP11B2; deoxycorticosterone substrate 100 nM; inhibitor 500 nM; read-out: % Inhibition human hCYP11B2

| Compound | inhibition at 0.5 µM |
| --- | --- |
| C(=C1/CCc2ccccc21)/c1cccnc1 [Compound 1a, 3-[(E)-2,3-Dihydro-1H-indane-1-ylidenemethyl]pyridine Hydrochloride] | 82% |
| Fc1ccc2c(c1)CC/C2=C\c1cccnc1 [Compound 5a, 3-[(E)-(5-Fluoro-2,3-dihydro-1H-indane-1-ylidene)methyl]pyridine Hydrochloride] | 88% |
| COc1ccc2c(c1)CCC/C2=C\c1cccnc1 [Compound 13a, 3-[(E)-(6-Methoxy-3,4-dihydronaphthalene-1(2H)-ylidene)methyl]pyridine Hydrochloride] | 52% |
| Cc1cccc2c1CC/C2=C\c1cccnc1 [Compound 23a, 3-[(E)-(4-Methyl-2,3-dihydro-1H-indane-1-ylidene)methyl]pyridine Hydrochloride] | 52% |
| Fc1cccc2c1CC/C2=C\c1cccnc1 [Compound 24a, 3-[(E)-(4-Fluoro-2,3-dihydro-1H-indane-1-ylidene)methyl]pyridine Hydrochloride] | 84% |
| Clc1cccc2c1CC/C2=C\c1cccnc1 [Compound 25a, 3-[(E)-(4-Chloro-2,3-dihydro-1H-indane-1-ylidene)methyl]pyridine Hydrochloride] | 92% |

Now from value to molecule:

| inhibition at 0.5 µM | Compound |
| --- | --- |
| 75% | Clc1ccc2c(c1)CC/C2=C\c1cccnc1 [Compound 7a, 3-[(E)-(5-Chloro-2.3-dihydro-1H-indane-1-ylidene)methyl]pyridine Hydrochloride] |
| 68% | Clc1ccc2c(c1)CC/C2=C/c1cccnc1 [Compound 7b, 3-[(Z)-(5-Chloro-2,3-dihydro-1H-indane-1-ylidene)methyl]pyridine Hydrochloride] |
| 60% | Brc1ccc2c(c1)CC/C2=C\c1cccnc1 [Compound 9a, 3-[(E)-(5-Bromo-2,3-dihydro-1H-indane-1-ylidene)methyl]pyridine Hydrochloride] |
| 58% | Brc1ccc2c(c1)CC/C2=C/c1cccnc1 [Compound 9b, 3-[(Z)-(5-Bromo-2,3-dihydro-1H-indane-1-ylidene)methyl]pyridine Hydrochloride] |
| 79% | COc1ccc2c(c1)CC/C2=C\c1cccnc1 [Compound 11a, 3-[(E)-(5-Methoxy-2,3-dihydro-1H-indane-1-ylidene)methyl]pyridine Hydrochloride] |
| 81% | COc1ccc2c(c1)CC/C2=C/c1cccnc1 [Compound 11b, 3-[(Z)-(5-Methoxy-2,3-dihydro-1H-indane-1-ylidene)methyl]pyridine Hydrochloride] |
| 67% | CCOc1ccc2c(c1)CC/C2=C\c1cccnc1 [Compound 19a, 3-[(E)-(5-Ethoxy-2,3-dihydro-1H-indane-1-ylidene)methyl]pyridine Hydrochloride] |
| 52% | CCOc1ccc2c(c1)CC/C2=C/c1cccnc1 [Compound 19b, 3-[(Z)-(5-Ethoxy-2,3-dihydro-1H-indane-1-ylidene)methyl]pyridine Hydrochloride] |

Same assay, conditions: read-out: % Inhibition human hCYP11B2

| Compound | inhibition at 0.5 µM |
| --- | --- |
| Fc1ccc2c(c1)CC/C2=C\c1ccncc1 [Compound 6a, 4-[(E)-(5-Fluoro-2,3-dihydro-1H-indane-1-ylidene)methyl]pyridine Hydrochloride] | 37% |
| Fc1ccc2c(c1)CC/C2=C/c1ccncc1 [Compound 6b, 4-[(Z)-(5-Fluoro-2,3-dihydro-1H-indane-1-ylidene)methyl]pyridine Hydrochloride] | 77% |
| Clc1ccc2c(c1)CC/C2=C\c1ccncc1 [Compound 8a, 4-[(E)-(5-Chloro-2,3-dihydro-1H-indane-1-ylidene)methyl]pyridine Hydrochloride] | 38% |
| Brc1ccc2c(c1)CC/C2=C\c1ccncc1 [Compound 10a, 4-[(E)-(5-Bromo-2,3-dihydro-1H-indane-1-ylidene)methyl]pyridine Hydrochloride] | 17% |
